This is an account of results in patent US10167284B2, “Spirocyclic compounds as agonists of the muscarinic M1 receptor and/or M4 receptor” (HEPTARES THERAPEUTICS LIMITED, priority 2015, dated 2019).

In experiment [1] the target is T1, human muscarinic M4 receptor (Homo sapiens, UniProt P08173).
T1 construct: expressed in transfected cells
T1 sequence (P08173 1-479): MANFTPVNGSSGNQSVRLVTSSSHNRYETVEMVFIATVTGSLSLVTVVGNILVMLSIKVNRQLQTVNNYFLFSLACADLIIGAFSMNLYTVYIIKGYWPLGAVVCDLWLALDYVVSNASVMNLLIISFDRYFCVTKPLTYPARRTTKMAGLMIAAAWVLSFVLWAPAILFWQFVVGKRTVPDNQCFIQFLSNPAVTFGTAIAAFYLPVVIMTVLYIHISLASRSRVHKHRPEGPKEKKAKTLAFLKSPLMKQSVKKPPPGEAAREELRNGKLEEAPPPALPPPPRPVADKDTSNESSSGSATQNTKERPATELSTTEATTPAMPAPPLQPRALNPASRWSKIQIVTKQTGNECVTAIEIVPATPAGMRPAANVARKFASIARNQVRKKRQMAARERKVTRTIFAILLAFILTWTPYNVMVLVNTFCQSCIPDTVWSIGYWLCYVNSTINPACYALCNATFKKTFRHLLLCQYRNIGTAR
The experiment is described as follows: Alphascreen Surefire phospho-ERK1/2 functional assay, M4. Type of experiment: cell-based. The note with it: for EC50: phospho-ERK1/2, read-out: pEC50 M4 (converted); for Emax: CHO, read-out: M4 % Emax cf. ACh, CHO cells stably expressing human M4. (In Alpha technology, singlet oxygen from a donor bead excites a nearby acceptor bead.)
Procedure: (§1) CHO cells stably expressing the human muscarinic M1, M2, M3 or M4 receptor were plated (25K/well) onto 96-well tissue culture plates in MEM-alpha+10% dialysed FBS. Once adhered, cells were serum-starved overnight. Agonist stimulation was performed by the addition of 5 μL agonist to the cells for 5 min (37° C.). Media was removed and 50 μL of lysis buffer added. After 15 min, a 4 μL sample was transferred to 384-well plate and 7 μL of detection mixture added. Plates were incubated for 2 h with gentle agitation in the dark and then read on a PHERAstar plate reader.
(§2) pEC50 and Emax figures were calculated from the resulting data for each receptor subtype.

For experiment [2], the target named is T2, human muscarinic M2 receptor (Homo sapiens, UniProt P08172).
T2 sequence (P08172 1-466): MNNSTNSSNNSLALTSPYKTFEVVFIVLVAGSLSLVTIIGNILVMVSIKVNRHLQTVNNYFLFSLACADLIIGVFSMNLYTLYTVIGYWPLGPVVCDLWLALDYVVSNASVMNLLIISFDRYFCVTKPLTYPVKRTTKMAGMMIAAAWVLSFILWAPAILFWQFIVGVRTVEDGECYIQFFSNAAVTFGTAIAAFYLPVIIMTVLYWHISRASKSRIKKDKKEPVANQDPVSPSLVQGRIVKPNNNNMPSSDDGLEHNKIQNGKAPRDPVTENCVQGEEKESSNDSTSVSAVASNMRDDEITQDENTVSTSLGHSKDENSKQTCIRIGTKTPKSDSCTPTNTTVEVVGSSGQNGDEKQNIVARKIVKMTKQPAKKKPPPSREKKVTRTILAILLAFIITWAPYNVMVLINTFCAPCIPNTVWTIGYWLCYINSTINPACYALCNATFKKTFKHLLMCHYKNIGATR
The experiment is described as follows: Alphascreen Surefire phospho-ERK1/2 functional assay, M2. As to conditions: for Emax: CHO, read-out: M2 % Emax cf. ACh, CHO cells stably expressing human M2, Emax relative to ACh; for EC50: pEC50 M2, CHO cells stably expressing human M2, phospho-ERK1/2.
Procedure: as §1, §2

Experiment [3] concerns the target T3, human muscarinic M1 receptor (Homo sapiens, UniProt P11229).
T3 construct: expressed in transfected cells
T3 sequence (P11229 1-460): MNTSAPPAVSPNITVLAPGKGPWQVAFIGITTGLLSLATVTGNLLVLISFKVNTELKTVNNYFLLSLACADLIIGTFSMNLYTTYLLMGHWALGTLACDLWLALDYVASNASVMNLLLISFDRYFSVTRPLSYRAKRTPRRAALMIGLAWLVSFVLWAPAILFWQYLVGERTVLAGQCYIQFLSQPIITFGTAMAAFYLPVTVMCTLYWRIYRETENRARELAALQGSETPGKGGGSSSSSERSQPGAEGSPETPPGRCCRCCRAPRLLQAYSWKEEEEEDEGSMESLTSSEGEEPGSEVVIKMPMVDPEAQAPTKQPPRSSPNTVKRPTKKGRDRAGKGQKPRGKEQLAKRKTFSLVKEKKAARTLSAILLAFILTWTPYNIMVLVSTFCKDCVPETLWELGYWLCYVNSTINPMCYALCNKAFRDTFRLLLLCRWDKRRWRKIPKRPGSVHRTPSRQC
As to the kind of experiment: Alphascreen Surefire phospho-ERK1/2 functional assay, M1. The class given is cell-based. As to conditions: for EC50: phospho-ERK1/2, read-out: pEC50 M1 (converted); for Emax: CHO, read-out: M1 % Emax cf. ACh, CHO cells stably expressing human M1.
Procedure: as §1, §2

Experiment [4] concerns the target human muscarinic M3 receptor (Homo sapiens, UniProt P20309). The experiment is described as follows: Alphascreen Surefire phospho-ERK1/2 functional assay, M3. As to conditions: for Emax: CHO, read-out: M3 % Emax cf. ACh, CHO cells stably expressing human M3, Emax relative to ACh.
The test system of experiment [5] is d-amphetamine induced hyperactivity in rats. The experiment is described as follows: d-Amphetamine-induced hyperactivity in rats. The note with it: positive control dose, previously observed. Type of experiment: in vivo. The procedure: Effect of a Novel Test Compound and Xanomeline on d-Amphetamine-Induced Hyperactivity in Rats
The aim of the study is to examine the effect of a novel test compound on d-amphetamine induced hyperactivity in rats. Schizophrenia is a complex multifactorial disease that cannot be fully represented by a single experimental procedure. Antipsychotic-like behaviour was assessed in rats by the inhibition of hyperactivity (or hyperlocomotion) elicited by d-amphetamine. This procedure is sensitive to clinically relevant dopamine receptor antagonists and is therefore considered suitable for comparing muscarinic agonists that influence dopaminergic signalling. […] Statistical analysis typically involved three-way analysis of covariance or robust regression with treatment, day and rack as factors and activity during the 30 minutes prior to treatment as a covariate, followed by appropriate multiple comparison tests. A P value of <0.05 was considered statistically significant and is marked accordingly in all subsequent figures.

Where [6] appears, read: CHO cells stably expressing human M4.
Setting [7] is: CHO cells stably expressing human M1.

Structures are written as SMILES. A value given as a limit tells only on which side of the number the result lay.

In general, Emax refers to the size of the effect at its maximum, as opposed to the concentration needed.

human muscarinic M3 receptor, sequence (P20309 whole entry): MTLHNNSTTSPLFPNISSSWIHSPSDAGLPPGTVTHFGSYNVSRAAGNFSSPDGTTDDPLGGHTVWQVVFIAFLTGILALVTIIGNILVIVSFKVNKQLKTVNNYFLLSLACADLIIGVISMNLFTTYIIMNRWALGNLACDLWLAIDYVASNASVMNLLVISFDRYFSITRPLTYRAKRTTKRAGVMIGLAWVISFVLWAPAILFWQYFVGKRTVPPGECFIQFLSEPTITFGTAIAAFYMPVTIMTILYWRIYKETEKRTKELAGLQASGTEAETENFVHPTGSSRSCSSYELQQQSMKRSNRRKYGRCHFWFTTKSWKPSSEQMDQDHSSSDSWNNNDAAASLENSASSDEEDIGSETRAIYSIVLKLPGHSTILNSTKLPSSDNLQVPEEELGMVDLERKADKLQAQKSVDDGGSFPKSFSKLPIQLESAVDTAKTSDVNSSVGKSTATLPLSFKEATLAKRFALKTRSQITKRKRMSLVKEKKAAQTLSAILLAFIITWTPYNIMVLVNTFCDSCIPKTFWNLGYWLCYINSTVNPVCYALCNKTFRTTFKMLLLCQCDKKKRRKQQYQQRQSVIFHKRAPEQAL

As to `CCOC(=O)N1CCC2(CC(N3CCC4(CC3)CNC(=O)N4)C2)C1` (single isomer, unassigned) [5-2 Isomer 2], the EC50 in experiment [1] (setting [6]) was 316 nM; in experiment [2] it was above 20000 nM; in experiment [3] (setting [7]), 126 nM; in experiment [4], above 20000 nM. For the same molecule, the maximal response (Emax) worked out at 50% in experiment [1] (Emax relative to ACh), 143% in experiment [2], 92% in experiment [3] (Emax relative to ACh) and 5% in experiment [4].
In the case of `CCN1NC(=O)CC12CCN(C1CC3(CCN(C(=O)OC)C3)C1)CC2` (single isomer, unassigned) [6-1 Isomer 2], the EC50 is 126 nM in experiment [1] (setting [6]), above 20000 nM in experiment [2], 631 nM in experiment [3] (setting [7]) and above 20000 nM in experiment [4]. In addition, the Emax is 68% in experiment [1] (Emax relative to ACh), 13% in experiment [2], 77% in experiment [3] (Emax relative to ACh) and 11% in experiment [4].
For `CCOC(=O)N1CCC2(CC(N3CCC4(CC3)CC(=O)NN4CC)C2)C1` (single isomer, unassigned) [6-2 Isomer 2], the EC50 in experiment [1] (setting [6]) is 20 nM; in experiment [2], above 20000 nM; in experiment [3] (setting [7]), 63.1 nM; in experiment [4], above 20000 nM. For the same molecule, the maximal effect (Emax) in experiment [1] (Emax relative to ACh) was 114%; in experiment [2], 0%; in experiment [3] (Emax relative to ACh) it was 109%; in experiment [4], 10%.
On to `CCCN1NC(=O)CC12CCN(C1CC3(CCN(C(=O)OCC)C3)C1)CC2` (single isomer, unassigned) [6-4 Isomer 2], for which the EC50 in experiment [1] (setting [6]) was 3.98 nM; in experiment [2] it was above 20000 nM; in experiment [3] (setting [7]), 31.6 nM; in experiment [4], above 20000 nM. Besides, the Emax in experiment [1] (Emax relative to ACh) worked out at 100%; in experiment [2] it was 20%; in experiment [3] (Emax relative to ACh), 89%; in experiment [4] it was 26%.
As to `CCOC(=O)N1CCC2(CC(N3CCC4(CC3)CC(=O)NN4Cc3ccccc3)C2)C1` (single isomer, unassigned) [6-6 Isomer 2], the “M4 % Emax cf. ACh” value in experiment [1] (CHO cells stably expressing human M4, Emax relative to ACh) is on record as 26) %. In addition, the EC50 in experiment [1] (setting [6]) was 316 nM; in experiment [2], above 20000 nM; in experiment [3] (setting [7]), 158 nM; in experiment [4], above 20000 nM. The figures for the maximum response (Emax) in experiment [2] and in experiment [4] were 3% and 4%, respectively. Moreover, the “M1 % Emax cf. ACh” value in experiment [3] (CHO cells stably expressing human M1, Emax relative to ACh) is recorded as “(71) %”.
Take `CCOC(=O)N1CCC2(CC(N3CCC4(CC3)CC(=O)N(CC)N4CC)C2)C1` (single isomer, unassigned) [6-8 Isomer 2]: the EC50 in experiment [1] (setting [6]) was 63.1 nM; in experiment [2] it was above 20000 nM; in experiment [3] (setting [7]), 3160 nM; in experiment [4], above 20000 nM. The Emax in experiment [1] (Emax relative to ACh) is 103%; in experiment [2], 10%; in experiment [3] (Emax relative to ACh) it was 55%; in experiment [4] it was 100%.
`CCCN1C(=O)CC2(CCN(C3CC4(CCN(C(=O)OCC)C4)C3)CC2)N1CC` (single isomer, unassigned) [6-9 Isomer 2]: the EC50 was 39.8 nM in experiment [1] (setting [6]), above 20000 nM in experiment [2], above 20000 nM in experiment [3] (setting [7]) and above 20000 nM in experiment [4]. The maximum response (Emax) in experiment [1] (Emax relative to ACh) was determined as 84%; in experiment [2] it was 1%; in experiment [3] (Emax relative to ACh) it was 17%; in experiment [4], 50%.
Consider `CCOC(=O)N1CC2(CCC(N3CCC4(CC3)OC(=O)NC4(C)C)C2)C1` (single isomer, unassigned) [8-3 Isomer 2], for which the EC50 is 3.16 nM in experiment [1] (setting [6]), above 20000 nM in experiment [2], above 20000 nM in experiment [3] (setting [7]) and above 20000 nM in experiment [4]. The Emax in experiment [1] (Emax relative to ACh) was 39%; in experiment [2] it was 2%; in experiment [3] (Emax relative to ACh), 12%; in experiment [4], 4%.
For `CCOC(=O)N1CC2(CC(N3CCC4(CC3)OC(=O)N(CC)C4(C)C)C2)C1` [Example 2-4, ethyl 6-(3-ethyl-4,4-dimethyl-2-oxo-1-oxa-3,8-diazaspiro[4.5]dec-8-yl)-2-azaspiro[3.3]heptane-2-carboxylate], the EC50 was 501 nM in experiment [1] (setting [6]), above 20000 nM in experiment [2], 1000 nM in experiment [3] (setting [7]) and above 20000 nM in experiment [4]. In addition, the Emax in experiment [1] (Emax relative to ACh) amounted to 95%; in experiment [2], 14%; in experiment [3] (Emax relative to ACh) it was 56%; in experiment [4], 24%.
Regarding `CCCCCCOc1nsnc1C1=CCCN(C)C1` [xanomeline], the d-amphetamine induced hyperactivity entry in experiment [5] was “significantly reduce”.
